Measurements reported in patent publication US5871779A, “Treatment of arthropathies with vanadate compounds or analogues thereof” (Mount Sinai Hospital Corporation, priority 1996, dated 1999).

How the values were obtained:
IL-1α = assay: synovial IL-1α expression in arthritic rats (Northern blot); type: in vivo, rat; settings: BMOV-treated (with NAC) vs control, Day 18
Description: (§1) Collagenase, stromelysin, and IL-1 expression were quantitated in each group of rats. Selected rats in each group were sacrificed on Day 18 post arthritis onset to measure collagenase, stromelysin, and IL-1 expression via the Northern Blot. Synovial biopsies were pooled and homogenized in the presence of RNASTAT-60 (Tel Test). Total RNA was isolated following the manufacturer's instructions, washed in 70% ethanol, and dissolved in 30 μl RNA loading buffer (Sigma) containing ethidium bromide. The RNA was electrophoresed on a 1% agarose formaldehyde gel and transferred to 0.45 μm nylon filter membrane (Magna NT, MSL). The blot was prehybridised in 50% formamide, 5×SSPE, 5×dendhardts, 1% SDS, 200 μg/ml ssDNA and 50 μg/ml tRNA. The rat collagenase cDNA (bp. 1-550 of locus RATCOL genbank accession M60616), rat stromelysin (ATCC, Rockville, Md.), or rat […] (genbank accession D00403) were labeled by random primed incorporation of ^32 P-dATP (Random Primed Labeling Kit, Boerhinger Manheim). After overnight hybridization at 42° C. overnight, the blot was washed in 1×SSPE at 37° C. and exposed to Kodak X-Ornat AP film for 24 hours at -70° C. with an intensifying screen. The blot was stripped with 50% formamide in 2×SSPE, checked for residual counts and reprobed. The resulting autoradiographs were digitized and analyzed with NIH image software and normalized for RNA loading.

collagenase = assay: synovial collagenase expression in arthritic rats (Northern blot); type: in vivo, rat; settings: BMOV-treated (with NAC) vs control, Day 18
Description: as §1

[1] = tolerability of BMOV and NAC in arthritic rats; type: in vivo
Description: Rats with definite arthritis on Day 10 post immunization were randomized into two groups. Control rats (n=8) received only NAC at a dose of 100 mg/kg/day s.c. NAC was prepared as a 3% aqueous solution. The experimental group (n=9) received NAC at 100 mg/kg/day s.c., as well as BMOV subcutaneously at 10 mg/kg/day. BMOV was solubilized in a 5% dextrose solution at 50° C.

stromelysin = assay: synovial stromelysin expression in arthritic rats (Northern blot); type: in vivo, rat; settings: BMOV-treated (with NAC) vs control, Day 18
Description: as §1

articular cartilage = assay: electron microscopy of articular cartilage of arthritic rats; type: in vivo, rat
Description: The synovium of rats from each group was examined by electron microscopy. Rats in each group were selected on Day 5 and Day 18 post arthritis onset to study joint morphology. Scanning and Transmission electron microscopy was performed on selected glutaraldehyde fixed joints. One ankle joint of each arthritic control and BMOV-treated rat was removed, critical point dried, and gold sputter-coated for scanning electron microscopy on Day 18 post arthritis onset to examine the trochlear surfaces. Conventional transmission electron microscopy was also performed on the articular cartilage of the trochlear surfaces of naive, arthritic control, and BMOV-treated animals using a Jeol 1200EX.

MDAY-D2 tumor = MDAY-D2 tumor growth in vivo, orthovanadate s.c. (Example 6A); set-up: species or system mice; settings: 10 mg/ml, 50 μl daily s.c., day 14
From the text: (§2) In order to examine the ability of vanadyl compounds to reduce tumor formation, growth and metastases, a specific animal model which allows investigation of all of these processes in the same animal was chosen. This model involves the injection of a metastatic haematopoietic cell line, MDAY-D2, into mice subcutaneously. These cells form a tumor at the site of injection and its size can be easily determined. In addition, these cells metastasize to the liver and metastases can be detected histologically after day 17 to 19. This model provides a very sensitive and reproducible approach to investigate the effect of vanadyl compounds on tumor growth and metastases.
Using the animal model described above, the effect of subcutaneous administration of orthovanadate on tumor growth was investigated. A total of 15 mice were injected subcutaneously with 1×10^5 MDAY-D2 cells on Day 1. On Day 5, small tumors could be observed at the site of injection. Five mice were injected daily with 50 μl of water alone and 10 mice were injected daily with water containing 10 mg/ml orthovanadate. On day 14, the mice were sacrificed. The tumors were removed from all the animals, photographed, and weighed. FIG. 11 compares sizes of tumors from two untreated and two orthovanadate treated mice. […] In animals treated with water alone, four mice had tumors weighing between 1.18 and 1.68 gms.

MDAY-D2 cells = assay: viability of MDAY-D2 cells; type: cell-based, mouse; settings: 0-50 μM, 48 hours
Description: Fos and jun activity are also required for cellular proliferation in many tumor cell lines. Accordingly, the effect of orthovanadate on adherent cells and cell suspensions were examined. MDAY-D2 (a mouse lymphoid cell line grown in suspension) and HTB14 cells (an adherent human primary astrocytoma cell line) were incubated in media containing 0-50 μM orthovanadate for 48 hours. The cells were harvested and the number of viable cells determined.
Three different forms of vanadyl compounds were examined for their effect on viability of cancer cell lines. MDAY-D2 cells were incubated in media containing 0-50 μM orthovanadate, vanadyl sulphate, or vanadyl hydroperoxide for 48 hours. The cells were harvested and the number of viable cells determined. […] Although there were slight differences in sensitivity, the overall cell death was similar.

[2] = tested on: metastases of MDAY-D2 cells; assay: liver metastases of MDAY-D2 cells (histology); type: in vivo, mice; settings: 500 μg/day; preliminary results
From the text: as §2
The metastatic liver was obtained from an animal 24 days following the administration MDAY-D2 cells. The nodules are quite numerous and large.
Livers were removed from animals treated as described above and prepared for histological examination. FIG. 16 compares liver sections from untreated (C), orthovanadate (VO)(500 μg/day) and vanadyl sulphate (VS)(500 μg/day) treated animals. Nodules are identified with an arrow.

Compound: Cc1occc(=O)c1[O-].Cc1occc(=O)c1[O-].[O]=[V+2] [BMOV, bis(methylmaltolato) oxovanadium (IV)]
- percent inhibition of IL-1α gene expression (IL-1α): 85%
- percent inhibition of collagenase gene expression (collagenase): 78%
- diarrhea ([1]; BMOV 10 mg/kg/day): not observed
- diarrhea ([1]; BMOV 15 mg/kg/day from Day 11): minor diarrhea
- percent inhibition of stromelysin gene expression (stromelysin): 58%
- trochlear surface by scanning electron micrograph (articular cartilage; Day 18): normal trochlear surface
- articular cartilage by transmission electron micrograph (articular cartilage; rat, in vivo): indistinguishable from the naive animal
- cartilage damage of joints (articular cartilage; scanning and transmission electron micrographs): little cartilage damage and intact cartilage

Compound: [Na+].[Na+].[Na+].[O]=[V]([O-])([O-])[O-] [orthovanadate, sodium orthovanadate]
- detectable tumors (MDAY-D2 tumor): 2 mice did not have detectable tumors
- tumor size (MDAY-D2 tumor; five mice): less than 0.16 gms
- toxicity to MDAY-D2 cells (MDAY-D2 cells): toxic
- killing of MDAY-D2 cells (MDAY-D2 cells; three forms compared): equally effective
- metastases in liver [2]: did not have detectable levels of metastases
